Data taken from US10798943B2, “Use of 6-anilino purine derivatives to improve heat stress tolerance of rice seedlings” (SYNGENTA PARTICIPATIONS AG, priority 2016, dated 2020).

Assays:
Format in all cases: in vivo
[1] = system: rice seedlings (hybrid rice variety ADT45) under heat stress; assay: Transplant shock stress, visual assessment of damage severity, Kumbakonam trial; settings: for Transplanting shock stress (8th day) / Transplanting shock stress (12th day) / Transplanting shock stress (4th day): Kumbakonam
Description: (§1) Trials were setup in two locations in India to test the effect of compounds of formula I on tolerance of rice seedlings to heat stress during transplantation.
(§2) For each trial, hybrid rice variety ADT45 was sown in seedling boxes. A compound of formula (Ia) was applied by foliar spray in the form of an EC formulation, at various dose rates and seedling growth stages as shown in Table 1.
(§3) Transplanting took place at the […] growth stage. Transplant shock was used as an indicator of tolerance to heat stress, and was measured via visual assessment of damage severity on a scale of 0% (no damage) to 100% (dead plant); observations such as yellowing and leaf tip burning are indicators of damage. Transplant shock was also assessed by measuring NVDI values using a Green Seeker™ crop sensor, which measures the percentage green area. A low transplant shock stress rating and high NVDI rating indicate improved tolerance to transplant shock stress.
(§4) The trial was carried out between 7 May 2015 and 15 Jun. 2015, with transplanting on 29 May 2015. The mean maximum daily temperature during the trial period was 37.3° C., and mean minimum daily temperature during the trial period was 24.9° C. The mean temperature during the entire trial period was 31.1° C.

[2] = system: rice seedlings (hybrid rice variety ADT45) under heat stress; assay: NVDI by Green Seeker crop sensor, Kumbakonam trial; parameters: key: NVDI as percentage green area (Green Seeker)
Description: as §1, §2, §3, §4

[3] = system: rice seedlings (hybrid rice variety ADT45); assay: Phytotoxicity assessments at Kumbakonam trial; settings: for Greenness at 3.2 leaf / Seedling height at 3.2 leaf / Seedling injury / Time to 3.2 leaf / Uniformity of foliage growth at 3.2 leaf / Uniformity of greening at 3.2 leaf / Whiteness of root mat at 3.2 leaf: Kumbakonam
Experimental: For each trial, hybrid rice variety ADT45 was sown in seedling boxes. A compound of formula (Ia) was applied by foliar spray in the form of an EC formulation, at various dose rates and seedling growth stages as shown in Table 1. [table] […] The trial was carried out between 7 May 2015 and 15 Jun. 2015, with transplanting on 29 May 2015. The mean maximum daily temperature during the trial period was 37.3° C., and mean minimum daily temperature during the trial period was 24.9° C. The mean temperature during the entire trial period was 31.1° C.

rice under heat stress = assay: Yield in 2016 trial (Trial 3)
[4] = treatment 2: 5 g ai/ha, Pigeon-breast
[5] = treatment 3: 10 g ai/ha, Pigeon-breast
[6] = treatment 4: 20 g ai/ha, Pigeon-breast
[7] = treatment 6: 10 g ai/ha, 2-leaf
[8] = treatment 7: 20 g ai/ha, 2-leaf
[9] = treatment 9: 10 g ai/ha, 3-leaf
[10] = treatment 10: 20 g ai/ha, 3-leaf
[11] = treatment 3: 10 g ai/ha, Sowing
[12] = treatment 5: 10 g ai/ha, 2-leaf
[13] = treatment 7: 10 g ai/ha, 3-leaf

In the case of `COc1cccc(Nc2nc(F)nc3[nH]cnc23)c1` [Formula Ia], the “Tolerance to heat stress / transplant shock stress, comparison of treatments” value ([1]; Kumbakonam trial, treatments 5 and 6 (2-leaf growth stage, 5-10 g ai/ha)) is reported as “giving the best results”, the “Transplanting shock stress (8th day)” value [1, 4] is reported as 35% and the “Transplanting shock stress (12th day)” value [1, 4] is reported as 15%. For the same compound, the “Transplanting shock stress (4th day)” value ([1]; treatment 2: 5 g ai/ha, Pigeon-breast, scale 0% no damage to 100% dead plant) was 32%, the “Transplanting shock stress (4th day)” value [1, 5] was 38% and the “Transplanting shock stress (8th day)” value [1, 5] was 32%. For the same compound, the “Transplanting shock stress (12th day)” value [1, 5] was 17%, the “Transplanting shock stress (4th day)” value [1, 6] was 30% and the “Transplanting shock stress (8th day)” value [1, 6] was 22%. The “Transplanting shock stress (12th day)” value [1, 6] was 13%, the “Transplanting shock stress (4th day)” value ([1]; treatment 5: 5 g ai/ha, 2-leaf) was 15% and the “Transplanting shock stress (8th day)” value ([1]; treatment 5: 5 g ai/ha, 2-leaf) was 13%. For the same compound, the “Transplanting shock stress (12th day)” value ([1]; treatment 5: 5 g ai/ha, 2-leaf) was 7%, the “Transplanting shock stress (4th day)” value [1, 7] was 30% and the “Transplanting shock stress (8th day)” value [1, 7] was 22%. For the same compound, the “Transplanting shock stress (12th day)” value [1, 7] was 10%, the “Transplanting shock stress (4th day)” value [1, 8] was 35% and the “Transplanting shock stress (8th day)” value [1, 8] was 37%. The “Transplanting shock stress (12th day)” value [1, 8] was 22%, the “Transplanting shock stress (4th day)” value ([1]; treatment 8: 5 g ai/ha, 3-leaf) was 27% and the “Transplanting shock stress (8th day)” value ([1]; treatment 8: 5 g ai/ha, 3-leaf) was 32%. The “Transplanting shock stress (12th day)” value ([1]; treatment 8: 5 g ai/ha, 3-leaf) was 17%, the “Transplanting shock stress (4th day)” value [1, 9] was 42% and the “Transplanting shock stress (8th day)” value [1, 9] was 27%. For the same compound, the “Transplanting shock stress (12th day)” value [1, 9] was 15%, the “Transplanting shock stress (4th day)” value [1, 10] was 45% and the “Transplanting shock stress (8th day)” value [1, 10] was 37%. For the same compound, the “Transplanting shock stress (12th day)” value [1, 10] was 25%, the “NVDI data (10 DAT)” value [2, 4] was 12 and the “NVDI data (15 DAT)” value [2, 4] was 19. The “NVDI data (10 DAT)” value [2, 5] was 6, the “NVDI data (15 DAT)” value [2, 5] was 19 and the “NVDI data (10 DAT)” value [2, 6] was 10. The “NVDI data (15 DAT)” value [2, 6] was 20, the “NVDI data (10 DAT)” value ([2]; treatment 5: 5 g ai/ha, 2-leaf) was 13 and the “NVDI data (15 DAT)” value ([2]; treatment 5: 5 g ai/ha, 2-leaf) was 22. The “NVDI data (10 DAT)” value [2, 7] was 12, the “NVDI data (15 DAT)” value [2, 7] was 20 and the “NVDI data (10 DAT)” value [2, 8] was 11. The “NVDI data (15 DAT)” value [2, 8] was 19, the “NVDI data (10 DAT)” value ([2]; treatment 8: 5 g ai/ha, 3-leaf) was 10 and the “NVDI data (15 DAT)” value ([2]; treatment 8: 5 g ai/ha, 3-leaf) was 19. For the same compound, the “NVDI data (10 DAT)” value [2, 9] was 15, the “NVDI data (15 DAT)” value [2, 9] was 18 and the “NVDI data (10 DAT)” value [2, 10] was 15. The “NVDI data (15 DAT)” value [2, 10] was 20, the “Phytotoxic effects to the rice seedlings (summary)” value ([3]; Kumbakonam trial, some marginal effects at the highest dose rate) was “did not cause any phytotoxic effects” and the “Greenness at 3.2 leaf” value [3, 4] was 3 unit. The “Seedling height at 3.2 leaf” value [3, 4] was 14 cm, the Seedling injury [3, 4] was 0% and the “Time to 3.2 leaf” value [3, 4] was 14 days. For the same compound, the “Uniformity of foliage growth at 3.2 leaf” value [3, 4] was 90%, the “Uniformity of greening at 3.2 leaf” value [3, 4] was 95% and the “Whiteness of root mat at 3.2 leaf” value [3, 4] was 90%. The “Greenness at 3.2 leaf” value [3, 5] was 3 unit, the “Seedling height at 3.2 leaf” value [3, 5] was 13 cm and the Seedling injury [3, 5] was 0%. The “Time to 3.2 leaf” value [3, 5] was 14 days, the “Uniformity of foliage growth at 3.2 leaf” value [3, 5] was 90% and the “Uniformity of greening at 3.2 leaf” value [3, 5] was 95%. For the same compound, the “Whiteness of root mat at 3.2 leaf” value [3, 5] was 90%, the “Greenness at 3.2 leaf” value [3, 6] was 3 unit and the “Seedling height at 3.2 leaf” value [3, 6] was 13 cm. The Seedling injury [3, 6] was 0%, the “Time to 3.2 leaf” value [3, 6] was 14 days and the “Uniformity of foliage growth at 3.2 leaf” value [3, 6] was 90%. The “Uniformity of greening at 3.2 leaf” value [3, 6] was 95%, the “Whiteness of root mat at 3.2 leaf” value [3, 6] was 90% and the “Greenness at 3.2 leaf” value ([3]; treatment 5: 5 g ai/ha, 2-leaf) was 3 unit. For the same compound, the “Seedling height at 3.2 leaf” value ([3]; treatment 5: 5 g ai/ha, 2-leaf) was 14 cm, the Seedling injury ([3]; treatment 5: 5 g ai/ha, 2-leaf) was 0% and the “Time to 3.2 leaf” value ([3]; treatment 5: 5 g ai/ha, 2-leaf) was 13 days. The “Uniformity of foliage growth at 3.2 leaf” value ([3]; treatment 5: 5 g ai/ha, 2-leaf) was 95%, the “Uniformity of greening at 3.2 leaf” value ([3]; treatment 5: 5 g ai/ha, 2-leaf) was 95% and the “Whiteness of root mat at 3.2 leaf” value ([3]; treatment 5: 5 g ai/ha, 2-leaf) was 85%. For the same compound, the “Greenness at 3.2 leaf” value [3, 7] was 2.8 unit, the “Seedling height at 3.2 leaf” value [3, 7] was 14 cm and the Seedling injury [3, 7] was 3%. For the same compound, the “Time to 3.2 leaf” value [3, 7] was 13 days, the “Uniformity of foliage growth at 3.2 leaf” value [3, 7] was 90% and the “Uniformity of greening at 3.2 leaf” value [3, 7] was 90%. For the same compound, the “Whiteness of root mat at 3.2 leaf” value [3, 7] was 85%, the “Greenness at 3.2 leaf” value [3, 8] was 2.5 unit and the “Seedling height at 3.2 leaf” value [3, 8] was 14 cm. The Seedling injury [3, 8] was 8%, the “Time to 3.2 leaf” value [3, 8] was 13 days and the “Uniformity of foliage growth at 3.2 leaf” value [3, 8] was 90%. The “Uniformity of greening at 3.2 leaf” value [3, 8] was 85%, the “Whiteness of root mat at 3.2 leaf” value [3, 8] was 85% and the “Greenness at 3.2 leaf” value ([3]; treatment 8: 5 g ai/ha, 3-leaf) was 3 unit. For the same compound, the “Seedling height at 3.2 leaf” value ([3]; treatment 8: 5 g ai/ha, 3-leaf) was 14 cm, the Seedling injury ([3]; treatment 8: 5 g ai/ha, 3-leaf) was 0% and the “Time to 3.2 leaf” value ([3]; treatment 8: 5 g ai/ha, 3-leaf) was 13 days. The “Uniformity of foliage growth at 3.2 leaf” value ([3]; treatment 8: 5 g ai/ha, 3-leaf) was 90%, the “Uniformity of greening at 3.2 leaf” value ([3]; treatment 8: 5 g ai/ha, 3-leaf) was 95% and the “Whiteness of root mat at 3.2 leaf” value ([3]; treatment 8: 5 g ai/ha, 3-leaf) was 90%. The “Greenness at 3.2 leaf” value [3, 9] was 3 unit, the “Seedling height at 3.2 leaf” value [3, 9] was 14 cm and the Seedling injury [3, 9] was 0%. The “Time to 3.2 leaf” value [3, 9] was 13 days, the “Uniformity of foliage growth at 3.2 leaf” value [3, 9] was 90% and the “Uniformity of greening at 3.2 leaf” value [3, 9] was 95%. The “Whiteness of root mat at 3.2 leaf” value [3, 9] was 90%, the “Greenness at 3.2 leaf” value [3, 10] was 2.5 unit and the “Seedling height at 3.2 leaf” value [3, 10] was 14 cm. The Seedling injury [3, 10] was 15%, the “Time to 3.2 leaf” value [3, 10] was 13 days and the “Uniformity of foliage growth at 3.2 leaf” value [3, 10] was 90%. For the same compound, the “Uniformity of greening at 3.2 leaf” value [3, 10] was 85%, the “Whiteness of root mat at 3.2 leaf” value [3, 10] was 85% and the “Average yield increase compared to UTC” value (rice under heat stress; treatment 2: 5 g ai/ha, Sowing) was “+2.9%”. The “Yield at 14% MC” value (rice under heat stress; treatment 2: 5 g ai/ha, Sowing) was 6799 kg/ha, the “Average yield increase compared to UTC” value (rice under heat stress; [11]) was −0.1% and the “Yield at 14% MC” value (rice under heat stress; [11]) was 6603 kg/ha. For the same compound, the “Average yield increase compared to UTC” value (rice under heat stress; treatment 4: 5 g ai/ha, 2-leaf) was “+6.2%”, the “Yield at 14% MC” value (rice under heat stress; treatment 4: 5 g ai/ha, 2-leaf) was 7014 kg/ha and the “Average yield increase compared to UTC” value (rice under heat stress; [12]) was “+8.8%”. The “Yield at 14% MC” value (rice under heat stress; [12]) was 7189 kg/ha, the “Average yield increase compared to UTC” value (rice under heat stress; treatment 6: 5 g ai/ha, 3-leaf) was “+5.6%” and the “Yield at 14% MC” value (rice under heat stress; treatment 6: 5 g ai/ha, 3-leaf) was 6978 kg/ha. For the same compound, the “Average yield increase compared to UTC” value (rice under heat stress; [13]) was “+3.3%” and the “Yield at 14% MC” value (rice under heat stress; [13]) was 6830 kg/ha.
